Measured values reported in patent publication US4612311A, “1,2,4-benzothiadiazine oxide derivatives” (Warner-Lambert Company, priority 1984, dated 1986).

How the values were obtained:
LD50 = assay: LD50; set-up: species or system male mice (NMRI); details: mouse, in vivo; oral; ">": no effect up to this highest examined dosage
Description: (§1) Experimental animals used were male mice (NMRI, origin: Ivanovas, Kissleg) of weight 18 to 25 g. The animals were allowed food and water ad lib.. but, according to the test, they were fasted for two to 16 hours before the beginning of the test with water allowed ad lib.
(§2) The substances under test were applied orally by means of a stomach tube in a 0.8% methocel suspension 30 minutes before the start of the test.

Ataxia threshold = type: in vivo, male mice (NMRI); details: oral, ">": no effect up to this highest examined dosage
Description: as §1, §2

[1] = Effect on duration of hexobarbital anesthesia (hypnotic activity); type: in vivo, male mice (NMRI); details: hexobarbital sodium 70 mg/kg i.v.
Description: as §1, §2
Seventy mg/kg (10 ml/kg body weight) of hexobarbital sodium were injected into a tail vein within a period of 15 seconds. Ten animals were used per dose. The criterion for the end of anesthesia was the moment when the animal roused itself from lying on its side. The average duration of anesthesia in the control animals was taken as 100 and the increases measured were calculated as a percentage of this value.

benzodiazepine rec. [2] = assay: GABA-Ratio, benzodiazepine receptor binding; details: in words
[3] = Motility test (spontaneous motility); type: in vivo, male mice (NMRI); details: 30 min
Description: as §1, §2
The spontaneous motility was measured simultaneously for a test group of five animals each for 30 minutes in two opaque cages (length 50 cm, width 25 cm, height 30 cm) using three infrared light barriers in each case. The sum of the impulses registered for the control group during this period was taken as 100% and the deviation in the case of the test group from this value was calculated in percent.

[4] = Punished exploratory behavior (4 plate test), anxiolytic activity; type: in vivo, male mice (NMRI); details: for Anxiolytic Activity (punished exploration), increase: 30 min before test, control = 100%
Description: as §1, §2
(§3) The model for testing for anxiolytic activity is based on the experimental creation of a conflict in the animals by counteracting the natural exploratory tendencies of the animals with an anxiety-inducing stimulus (aversive foot shock, aversive illumination).
The test box has a metal base consisting of four rectangles of equal size. After placing the animal in the box it can freely explore for 15 seconds. Then every transition from one metal plate of the base to another is punished by a mild foot shock (1.5 mA for 0.5 seconds). The number of tolerated foot shocks within one minute is the measure of the anxiolytic activity of the substance. The average number of accepted foot shock by the control animals was taken as 100%. Ten animals were examined per dose.

benzodiazepine rec. [5] = assay: Receptor binding: benzodiazepine rec.
[6] = Unpunished exploratory behavior (light-dark preference), anxiolytic activity; type: in vivo, male mice (NMRI); details: 30 min before test, control = 100%
Description: as §1, §2, §3
The testing equipment consists of a larger, brightly illuminated compartment and a smaller dark compartment. The animal is placed in the dark compartment and observed for ten minutes. The number of transitions between the compartments and the time spent in the two compartments are measured. The average number of transitions between the compartments of the control animals is taken as 100%. Ten animals were tested per dose.

Compound | LD50 (LD50) [mg/kg] | Ataxia Threshold (Ataxia threshold) [mg/kg] | GABA-Ratio, agonist character (benzodiazepine rec. [2]) | Anxiolytic Activity (punished exploration), increase ([4]; 15 mg/kg oral) [%] | Kd (benzodiazepine rec. [5]) [nM] | Hypnotic Activity (increase in sleep time) ([1]; 25 mg/kg oral) [%] | further results
O=S1(c2ccccc2)=Nc2ncnn2-c2ccc(Cl)cc21 (racemic) [Example 4a, (±)-7-Chloro-5-phenyl-[1,2,4]triazolo[5,1-c][1,2,4]benzothiadiazine-5-oxide] | > 400 | > 100 | part. ago. | 45 | 3500 |  | Hypnotic Activity (increase in sleep time) ([1]; 100 mg/kg oral): 224%; Spontaneous Motility (effect in words) ([3]; 100 mg/kg oral): no effect
CN1C(=O)CN=C(c2ccccc2)c2cc(Cl)ccc21 [Diazepam, reference compound] |  | 5 |  |  | 64 |  | Ataxia Threshold (Ataxia threshold; listed as diazepam): approximately 5 mg/kg; Hypnotic Activity (increase in sleep time) ([1]; 2 mg/kg oral): 286%; Hypnotic Activity (increase in sleep time) ([1]; 4 mg/kg oral): 320%; Spontaneous Motility, decrease ([3]; 5 mg/kg oral, control = 100%): 67%; Anxiolytic Activity (unpunished exploration), increase ([6]; 2 mg/kg oral): 43%; Anxiolytic Activity (unpunished exploration), decrease ([6]; 5 mg/kg oral): 33%
Cc1nc2n(n1)-c1ccc(Cl)cc1S(=O)(c1cccc(Cl)c1)=N2 (racemic) [Example 1c, (±)-7-Chloro-5-(3-chlorophenyl)-2-methyl-[1,2,4]triazolo[5,1-c][1,2,4]benzothiadiazine-5-oxide] | > 400 | > 100 |  | 35 | 10000 |  | Hypnotic Activity (increase in sleep time) ([1]; 15 mg/kg oral): 6%; Spontaneous Motility, increase ([3]; 15 mg/kg oral, control = 100%): 12%
Cc1nc2n(n1)-c1ccc(Cl)cc1S(=O)(c1ccccc1Cl)=N2 (racemic) [Example 2c, (±)-7-Chloro-2-methyl-5-(2-chlorophenyl)[1,2,4]triazolo[5,1-c][1,2,4]benzothiadiazine-5-oxide] | > 400 | > 100 | part. ago. |  | 20 |  | Hypnotic Activity (increase in sleep time) ([1]; 30 mg/kg oral): 96%; Spontaneous Motility, increase ([3]; 30 mg/kg oral, control = 100%): 6%; Anxiolytic Activity (punished exploration), increase ([4]; 30 mg/kg oral): 66%
O=S1(c2ccccc2)=Nc2ncnn2-c2cc(Cl)c(Br)cc21 (racemic) [Example 4b, (±)-7-Bromo-8-chloro-5-phenyl-[1,2,4]triazolo[5,1-c][1,2,4]benzothiadiazine-5-oxide] | > 400 | > 400 |  |  | 100000 | 21 | Spontaneous Motility, increase ([3]; 12.5 mg/kg oral, control = 100%): 83%; Anxiolytic Activity (punished exploration), increase ([4]; 12.5 mg/kg oral): 34%
Cc1nc2n(n1)-c1ccc(Cl)cc1S(=O)(c1ccccc1)=N2 (racemic) [Example 1a, (±)-7-Chloro-2-methyl-5-phenyl-[1,2,4]triazolo[5,1-c][1,2,4]benzothiadizine-5-oxide] | 1600 | > 100 | part. agonist |  | 1500 | 123 | Hypnotic Activity (increase in sleep time) ([1]; 50 mg/kg oral): 175%; Anxiolytic activity (in words) ([4]; 7.5 to 45 mg/kg, compared with diazepam 1 to 4 mg/kg): comparable with that of diazapam (1 to 4 mg/kg)
